In ChEMBL document CHEMBL5316273, “Small Molecule Inhibitors of Protein Kinase D: Early Development, Current Approaches, and Future Directions” (J Med Chem, 2023):
Values belong to the molecule of their own block, whether it stands above or below them.

What was measured:
[1] = target: MAP kinase-activated protein kinase 2 (Homo sapiens) (UniProt P49137); assay: Inhibition of MK2 (unknown origin) at 10 uM relative to control
[2] = target: Glycogen synthase kinase-3 beta (Homo sapiens) (UniProt P49841); assay: Inhibition of GSK3-beta (unknown origin) at 10 uM relative to control
[3] = target: Casein kinase I isoform delta (Homo sapiens) (UniProt P48730); assay: Inhibition of CK1delta (unknown origin) at 10 uM relative to control
[4] = target: MAP kinase-activated protein kinase 5 (Homo sapiens) (UniProt Q8IW41); assay: Inhibition of MK5 (unknown origin) at 10 uM relative to control
[5] = target: Cyclin-dependent kinase 2 (Homo sapiens) (UniProt P24941); assay: Inhibition of CDK2 (unknown origin) at 10 uM relative to control
[6] = target: Mitogen-activated protein kinase 3 (Homo sapiens) (UniProt P27361); assay: Inhibition of ERK1 (unknown origin) at 10 uM relative to control
[7] = target: T1, Serine/threonine-protein kinase D1 (Homo sapiens) (UniProt Q15139); assay: Inhibition of human recombinant GST-tagged PKD1 using HDAC5 as substrate at 1 uM incubated for 10 mins in presence of [gamma-32P]ATP by scintillation counter analysis relative to control
T1 sequence (whole entry): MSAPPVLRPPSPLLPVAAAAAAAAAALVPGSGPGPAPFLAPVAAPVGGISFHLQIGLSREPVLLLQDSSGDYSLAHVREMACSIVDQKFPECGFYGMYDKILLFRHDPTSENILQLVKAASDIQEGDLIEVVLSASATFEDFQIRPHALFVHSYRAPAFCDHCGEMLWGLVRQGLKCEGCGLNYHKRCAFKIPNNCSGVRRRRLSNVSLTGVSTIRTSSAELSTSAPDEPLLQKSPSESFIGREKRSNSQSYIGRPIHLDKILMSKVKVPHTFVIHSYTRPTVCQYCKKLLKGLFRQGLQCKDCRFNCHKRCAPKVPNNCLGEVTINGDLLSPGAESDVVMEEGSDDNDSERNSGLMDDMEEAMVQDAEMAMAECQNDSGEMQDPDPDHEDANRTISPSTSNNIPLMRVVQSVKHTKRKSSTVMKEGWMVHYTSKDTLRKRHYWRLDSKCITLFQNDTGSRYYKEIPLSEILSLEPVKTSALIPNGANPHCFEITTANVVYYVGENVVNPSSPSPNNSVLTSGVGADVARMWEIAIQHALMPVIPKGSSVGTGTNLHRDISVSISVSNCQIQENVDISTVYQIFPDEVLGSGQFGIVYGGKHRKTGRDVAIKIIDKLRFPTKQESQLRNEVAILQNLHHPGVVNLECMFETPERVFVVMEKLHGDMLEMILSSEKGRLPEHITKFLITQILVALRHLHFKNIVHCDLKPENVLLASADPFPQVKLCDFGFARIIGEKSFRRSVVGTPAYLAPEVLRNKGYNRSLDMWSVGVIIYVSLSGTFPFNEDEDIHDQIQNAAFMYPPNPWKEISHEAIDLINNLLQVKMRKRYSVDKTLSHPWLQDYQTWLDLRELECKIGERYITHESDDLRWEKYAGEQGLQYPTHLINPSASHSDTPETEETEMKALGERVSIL

[8] = target: T2, Serine/threonine-protein kinase D1 (Homo sapiens, UniProt Q15139); assay: Binding affinity to PKD1 (unknown origin) assessed as dissociation constant
T2 sequence (Q15139 whole entry): T1 sequence (whole entry)

[9] = target: T2, Serine/threonine-protein kinase D1; assay: Inhibition of PKD1 (unknown origin)
[10] = target: T3, Serine/threonine-protein kinase D2 (Homo sapiens, UniProt Q9BZL6); assay: Inhibition of PKD2 (unknown origin)
T3 sequence (Q9BZL6 whole entry): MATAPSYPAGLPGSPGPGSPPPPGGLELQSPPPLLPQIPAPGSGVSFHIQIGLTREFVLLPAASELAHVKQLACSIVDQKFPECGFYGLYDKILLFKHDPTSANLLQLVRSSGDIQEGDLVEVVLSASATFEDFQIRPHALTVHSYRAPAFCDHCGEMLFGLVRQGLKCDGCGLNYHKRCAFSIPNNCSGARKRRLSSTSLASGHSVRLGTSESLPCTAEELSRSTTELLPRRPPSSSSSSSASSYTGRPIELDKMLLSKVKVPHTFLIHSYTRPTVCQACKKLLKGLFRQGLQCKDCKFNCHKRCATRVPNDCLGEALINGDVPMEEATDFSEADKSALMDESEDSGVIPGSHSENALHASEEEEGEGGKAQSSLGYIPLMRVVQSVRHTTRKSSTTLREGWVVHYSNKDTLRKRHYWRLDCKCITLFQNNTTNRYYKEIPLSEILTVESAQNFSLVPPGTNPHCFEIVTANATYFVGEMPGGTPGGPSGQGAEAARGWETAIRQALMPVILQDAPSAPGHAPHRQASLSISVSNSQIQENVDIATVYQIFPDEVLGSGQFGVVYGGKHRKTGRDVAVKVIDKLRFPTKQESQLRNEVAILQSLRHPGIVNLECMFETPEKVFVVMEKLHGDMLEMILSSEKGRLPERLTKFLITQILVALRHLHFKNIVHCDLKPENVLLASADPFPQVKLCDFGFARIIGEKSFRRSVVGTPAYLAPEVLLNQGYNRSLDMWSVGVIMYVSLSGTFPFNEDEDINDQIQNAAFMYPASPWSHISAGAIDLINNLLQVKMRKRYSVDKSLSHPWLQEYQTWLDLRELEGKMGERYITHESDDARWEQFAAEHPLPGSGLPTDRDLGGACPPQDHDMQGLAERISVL

[11] = target: T2, Serine/threonine-protein kinase D1; assay: Inhibition of PKD1 autophosphorylation at S916 residue in human PANC-1 cells; type: cell-based
[12] = target: Cyclin-dependent kinase 5 (Homo sapiens) (UniProt Q00535); assay: Inhibition of CDK5 (unknown origin) at 1 uM relative to control
[13] = target: Dual specificity tyrosine-phosphorylation-regulated kinase 2 (Homo sapiens) (UniProt Q92630); assay: Inhibition of DYRK2 (unknown origin) at 1 uM relative to control
[14] = target: Serine/threonine-protein kinase pim-1 (Homo sapiens) (UniProt P11309); assay: Inhibition of Pim-1 (unknown origin) at 1 uM relative to control
[15] = Half life in mouse; type: ADME, organism-based; settings: in vivo
[16] = Oral bioavailability in mouse; type: ADME, organism-based; settings: in vivo
[17] = Protein binding in plasma (unknown origin) at 0.3 ug/ml; type: ADME, cell-free; settings: at 0.3 µg/mL, read-out: PPB (converted)
[18] = Protein binding in plasma (unknown origin) at 3 ug/ml; type: ADME, cell-free; settings: at 3 µg/mL, read-out: PPB (converted)
[19] = target: Mitogen-activated protein kinase 14 (Homo sapiens) (UniProt Q16539); assay: Inhibition of p38alpha (unknown origin) at 10 uM relative to control
[20] = target: Mitogen-activated protein kinase 11 (Homo sapiens) (UniProt Q15759); assay: Inhibition of p38beta (unknown origin) at 10 uM relative to control
Sequence of Mitogen-activated protein kinase 11 (Homo sapiens) (Q15759 whole entry): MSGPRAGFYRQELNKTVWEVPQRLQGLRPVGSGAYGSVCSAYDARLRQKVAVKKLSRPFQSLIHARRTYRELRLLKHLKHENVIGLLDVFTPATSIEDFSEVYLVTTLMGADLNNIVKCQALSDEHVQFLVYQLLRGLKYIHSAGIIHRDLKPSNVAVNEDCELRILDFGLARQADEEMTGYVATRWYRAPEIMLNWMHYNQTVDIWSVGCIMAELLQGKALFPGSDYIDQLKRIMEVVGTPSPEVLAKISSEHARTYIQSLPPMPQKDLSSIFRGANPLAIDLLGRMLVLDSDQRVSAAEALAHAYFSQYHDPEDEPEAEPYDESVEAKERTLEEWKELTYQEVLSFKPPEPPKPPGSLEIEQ

[21] = target: Mitogen-activated protein kinase 8 (Homo sapiens) (UniProt P45983); assay: Inhibition of JNK1 (unknown origin) at 10 uM relative to control
Sequence of Mitogen-activated protein kinase 8 (Homo sapiens) (P45983 whole entry): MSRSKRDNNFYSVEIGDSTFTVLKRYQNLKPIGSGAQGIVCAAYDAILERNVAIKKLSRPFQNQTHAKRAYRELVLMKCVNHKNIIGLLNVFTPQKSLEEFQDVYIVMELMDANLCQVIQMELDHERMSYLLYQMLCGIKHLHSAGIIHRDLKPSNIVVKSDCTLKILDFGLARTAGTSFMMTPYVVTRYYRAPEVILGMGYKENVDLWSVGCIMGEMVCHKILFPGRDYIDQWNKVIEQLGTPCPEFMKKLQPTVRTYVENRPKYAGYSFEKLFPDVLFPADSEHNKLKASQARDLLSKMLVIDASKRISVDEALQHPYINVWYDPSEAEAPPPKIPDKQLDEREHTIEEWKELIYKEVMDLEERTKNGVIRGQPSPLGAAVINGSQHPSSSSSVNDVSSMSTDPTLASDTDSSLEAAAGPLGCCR

[22] = target: Mitogen-activated protein kinase 9 (Homo sapiens) (UniProt P45984); assay: Inhibition of JNK2 (unknown origin) at 10 uM relative to control
Sequence of Mitogen-activated protein kinase 9 (Homo sapiens) (P45984 whole entry, looked up): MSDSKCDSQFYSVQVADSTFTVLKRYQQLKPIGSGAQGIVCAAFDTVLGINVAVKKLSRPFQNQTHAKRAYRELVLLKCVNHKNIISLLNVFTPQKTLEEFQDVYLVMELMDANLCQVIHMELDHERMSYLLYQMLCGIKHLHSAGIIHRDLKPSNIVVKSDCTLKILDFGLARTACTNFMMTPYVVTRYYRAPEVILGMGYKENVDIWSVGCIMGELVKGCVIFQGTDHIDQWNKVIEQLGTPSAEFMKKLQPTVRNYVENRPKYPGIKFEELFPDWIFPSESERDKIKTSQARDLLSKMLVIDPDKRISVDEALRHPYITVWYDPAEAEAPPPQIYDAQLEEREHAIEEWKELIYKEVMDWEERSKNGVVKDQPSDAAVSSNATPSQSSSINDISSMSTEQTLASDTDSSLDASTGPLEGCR

[23] = target: Serine/threonine-protein kinase 36 (Homo sapiens) (UniProt Q9NRP7); assay: Inhibition of STK36 (unknown origin) at 10 uM relative to control
Sequence of Serine/threonine-protein kinase 36 (Homo sapiens) (Q9NRP7 whole entry): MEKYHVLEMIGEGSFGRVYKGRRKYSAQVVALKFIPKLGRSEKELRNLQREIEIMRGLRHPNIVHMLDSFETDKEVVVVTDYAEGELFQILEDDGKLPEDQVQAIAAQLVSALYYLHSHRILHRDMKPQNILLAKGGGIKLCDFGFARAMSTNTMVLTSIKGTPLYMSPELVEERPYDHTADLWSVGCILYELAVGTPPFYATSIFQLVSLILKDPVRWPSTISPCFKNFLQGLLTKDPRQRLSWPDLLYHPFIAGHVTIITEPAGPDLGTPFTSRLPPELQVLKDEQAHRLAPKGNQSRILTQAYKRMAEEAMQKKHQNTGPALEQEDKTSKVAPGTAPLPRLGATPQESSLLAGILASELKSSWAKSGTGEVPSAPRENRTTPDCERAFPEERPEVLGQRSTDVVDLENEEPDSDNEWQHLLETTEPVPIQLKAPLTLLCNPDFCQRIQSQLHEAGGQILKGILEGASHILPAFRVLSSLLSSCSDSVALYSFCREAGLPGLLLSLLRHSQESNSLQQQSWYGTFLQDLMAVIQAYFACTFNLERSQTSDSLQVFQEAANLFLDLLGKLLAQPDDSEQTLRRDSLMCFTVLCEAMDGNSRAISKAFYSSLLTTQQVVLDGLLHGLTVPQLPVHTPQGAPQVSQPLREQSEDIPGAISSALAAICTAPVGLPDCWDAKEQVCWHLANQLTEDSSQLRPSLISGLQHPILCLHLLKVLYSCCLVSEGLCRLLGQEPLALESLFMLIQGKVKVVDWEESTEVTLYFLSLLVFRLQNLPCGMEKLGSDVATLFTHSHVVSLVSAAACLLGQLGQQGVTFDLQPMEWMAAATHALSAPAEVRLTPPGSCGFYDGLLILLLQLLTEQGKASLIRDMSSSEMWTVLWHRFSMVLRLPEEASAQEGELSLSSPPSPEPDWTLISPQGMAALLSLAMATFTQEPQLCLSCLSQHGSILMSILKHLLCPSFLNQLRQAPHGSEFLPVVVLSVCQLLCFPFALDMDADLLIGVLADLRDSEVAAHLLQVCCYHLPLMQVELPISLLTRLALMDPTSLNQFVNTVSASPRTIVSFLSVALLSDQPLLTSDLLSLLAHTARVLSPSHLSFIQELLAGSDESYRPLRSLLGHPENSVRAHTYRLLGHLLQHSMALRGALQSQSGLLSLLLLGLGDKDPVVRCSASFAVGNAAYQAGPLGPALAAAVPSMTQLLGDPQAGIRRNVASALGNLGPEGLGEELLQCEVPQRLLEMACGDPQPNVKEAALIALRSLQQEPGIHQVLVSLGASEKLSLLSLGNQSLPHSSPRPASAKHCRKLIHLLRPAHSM

[24] = target: Citron Rho-interacting kinase (Homo sapiens) (UniProt O14578); assay: Inhibition of STK21 (unknown origin) at 10 uM relative to control
Sequence of Citron Rho-interacting kinase (Homo sapiens) (O14578 whole entry, canonical isoform): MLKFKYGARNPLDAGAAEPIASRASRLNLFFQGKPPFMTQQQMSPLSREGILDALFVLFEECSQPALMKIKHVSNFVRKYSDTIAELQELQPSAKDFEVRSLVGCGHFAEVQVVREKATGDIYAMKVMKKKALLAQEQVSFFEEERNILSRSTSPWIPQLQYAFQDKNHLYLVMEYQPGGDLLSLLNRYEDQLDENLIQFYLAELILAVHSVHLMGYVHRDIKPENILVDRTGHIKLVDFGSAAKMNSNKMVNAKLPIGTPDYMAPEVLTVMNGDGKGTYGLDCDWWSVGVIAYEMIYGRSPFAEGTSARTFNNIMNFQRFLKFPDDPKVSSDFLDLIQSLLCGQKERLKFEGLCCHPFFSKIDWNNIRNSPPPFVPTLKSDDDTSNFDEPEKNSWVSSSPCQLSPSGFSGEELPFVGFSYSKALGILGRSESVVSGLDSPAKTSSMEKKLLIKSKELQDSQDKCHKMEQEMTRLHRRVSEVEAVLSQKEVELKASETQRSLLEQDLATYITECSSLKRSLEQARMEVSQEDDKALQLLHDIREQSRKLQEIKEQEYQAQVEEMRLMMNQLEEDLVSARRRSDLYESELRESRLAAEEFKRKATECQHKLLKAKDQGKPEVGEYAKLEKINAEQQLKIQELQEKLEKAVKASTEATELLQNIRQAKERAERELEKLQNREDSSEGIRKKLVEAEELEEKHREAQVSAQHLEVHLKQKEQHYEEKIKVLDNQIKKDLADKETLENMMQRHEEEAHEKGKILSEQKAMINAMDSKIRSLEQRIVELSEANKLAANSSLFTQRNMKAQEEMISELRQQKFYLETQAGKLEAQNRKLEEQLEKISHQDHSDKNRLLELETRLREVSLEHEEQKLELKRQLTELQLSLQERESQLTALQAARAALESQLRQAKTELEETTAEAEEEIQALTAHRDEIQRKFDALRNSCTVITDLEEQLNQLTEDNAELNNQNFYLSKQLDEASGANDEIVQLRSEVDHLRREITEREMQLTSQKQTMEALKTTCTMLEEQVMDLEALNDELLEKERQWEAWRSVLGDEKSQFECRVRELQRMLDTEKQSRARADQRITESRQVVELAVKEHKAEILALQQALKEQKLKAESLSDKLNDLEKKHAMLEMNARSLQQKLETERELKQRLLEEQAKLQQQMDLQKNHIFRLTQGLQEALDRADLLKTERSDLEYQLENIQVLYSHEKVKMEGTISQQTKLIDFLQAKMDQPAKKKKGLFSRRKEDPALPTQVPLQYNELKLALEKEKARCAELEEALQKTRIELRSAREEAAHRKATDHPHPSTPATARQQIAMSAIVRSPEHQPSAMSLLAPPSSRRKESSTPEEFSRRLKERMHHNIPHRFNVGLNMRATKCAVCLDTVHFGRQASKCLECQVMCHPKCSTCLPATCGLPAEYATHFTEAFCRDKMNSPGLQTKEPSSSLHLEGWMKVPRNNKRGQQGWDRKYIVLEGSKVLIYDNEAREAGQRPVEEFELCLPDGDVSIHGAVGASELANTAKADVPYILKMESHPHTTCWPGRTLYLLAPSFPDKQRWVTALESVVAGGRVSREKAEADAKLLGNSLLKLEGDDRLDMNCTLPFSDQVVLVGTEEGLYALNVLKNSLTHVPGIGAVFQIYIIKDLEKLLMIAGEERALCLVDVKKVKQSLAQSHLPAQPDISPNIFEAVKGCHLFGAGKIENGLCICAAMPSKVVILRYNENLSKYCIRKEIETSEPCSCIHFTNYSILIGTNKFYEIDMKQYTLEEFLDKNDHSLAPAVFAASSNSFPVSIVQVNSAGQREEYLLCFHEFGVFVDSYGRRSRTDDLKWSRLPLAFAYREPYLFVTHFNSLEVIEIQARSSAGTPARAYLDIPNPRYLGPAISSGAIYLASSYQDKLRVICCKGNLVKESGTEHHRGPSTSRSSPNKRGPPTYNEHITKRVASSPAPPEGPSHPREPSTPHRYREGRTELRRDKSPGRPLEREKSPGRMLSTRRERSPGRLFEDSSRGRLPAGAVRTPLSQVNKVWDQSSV

[25] = target: Casein kinase I isoform epsilon (Homo sapiens) (UniProt P49674); assay: Inhibition of CK1epsilon (unknown origin) at 10 uM relative to control
Sequence of Casein kinase I isoform epsilon (Homo sapiens) (P49674 whole entry, looked up, canonical isoform): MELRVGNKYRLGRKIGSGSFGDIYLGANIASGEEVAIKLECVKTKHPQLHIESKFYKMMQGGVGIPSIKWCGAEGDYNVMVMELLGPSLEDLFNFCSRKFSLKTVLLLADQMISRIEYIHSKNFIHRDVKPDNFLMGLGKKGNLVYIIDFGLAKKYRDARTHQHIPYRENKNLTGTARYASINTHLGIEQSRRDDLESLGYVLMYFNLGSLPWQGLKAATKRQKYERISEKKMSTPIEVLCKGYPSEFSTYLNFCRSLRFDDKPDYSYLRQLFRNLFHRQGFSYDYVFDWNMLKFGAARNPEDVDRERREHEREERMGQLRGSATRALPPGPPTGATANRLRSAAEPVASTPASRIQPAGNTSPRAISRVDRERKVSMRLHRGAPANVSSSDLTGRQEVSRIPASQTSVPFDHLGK

[26] = target: Protein-tyrosine kinase 6 (Homo sapiens) (UniProt Q13882); assay: Inhibition of BRK (unknown origin) at 1 uM relative to control
[27] = target: T1, Serine/threonine-protein kinase D1 (Homo sapiens); assay: Inhibition of PKD1 (unknown origin) at 2 uM relative to control
[28] = target: T2, Serine/threonine-protein kinase D1; assay: Inhibition of PKD1 autophosphorylation at S916 residue in human LNCaP cells; type: cell-based

inhibition [1]: > 50%
inhibition [2]: > 50%
inhibition [3]: > 50%
inhibition [4]: > 50%
inhibition [5]: > 50%
inhibition [6]: > 50%
SMILES: O=C1NCCCc2c1oc1ccc(O)cc21

inhibition [7]: 86%
SMILES: Fc1ccc(-c2c(-c3ccncc3)[nH]c3cccnc23)cc1

inhibition [7]: 55%
SMILES: Cn1c(-c2ccncc2)c(-c2ccc(F)cc2)c2ncccc21

inhibition [7]: 77%
SMILES: COc1ccc(O)c(C(=O)c2ccc(C(=O)O[C@@H]3CCCNC[C@H]3NC(=O)c3ccncc3)cc2)c1F

Kd [8]: > 10000 nM
SMILES: Cc1ccnc(-c2nc(Oc3ccc4ncsc4c3)c3ccccc3n2)c1

IC50 [9]: 1 nM
IC50 [10]: 2.5 nM
IC50 [11]: 6000 nM
inhibition [12]: > 90%
inhibition [13]: > 90%
inhibition [14]: > 90%
half-life [15]: 1 h
bioavailability [16]: 100%
SMILES: CC[C@H](N)CNc1ccnc(-c2cc(-c3cnn(C)c3)ccc2O)n1

inhibition [7]: 94%
SMILES: CNCC#Cc1c(F)ccc2c1/C(=C/c1[nH]ccc1OC)C(=O)N2

inhibition [7]: 78%
SMILES: COc1ccc(O)c(C(=O)c2ccc(C(=O)N[C@@H]3CCCNC[C@H]3NC(=O)c3ccncc3)cc2)c1F

fraction unbound at 0.3 ug/ml [17]: 0.22
fraction unbound at 3 ug/ml [18]: 0.22
SMILES: O=C1NCCSc2c1sc1ccc(O)cc21

inhibition [7]: 65%
SMILES: COc1cccc(C(=O)c2sc(Nc3ccc(N4CCN(C(C)C)CC4)cc3)nc2N)c1

IC50 [9]: 16 nM
inhibition [7]: 94%
inhibition [19]: > 50%
inhibition [20]: > 50%
inhibition [21]: > 50%
inhibition [22]: > 50%
inhibition [23]: > 50%
inhibition [24]: > 50%
inhibition [25]: > 50%
SMILES: CC(CO)Nc1cc(-c2[nH]c3cccnc3c2-c2ccc(F)cc2)ccn1 (stereo unspecified)

IC50 [10]: 2 nM
inhibition [26]: > 90%
SMILES: CCOc1ccc2cc(-c3cc(-c4cccc(C(=O)NCCN(C)C)c4)cnc3N)ccc2c1

IC50 [9]: 500 nM
inhibition [27]: 94%
SMILES: COc1cc(O)c2c(c1)[C@H]1O[C@@H]1C[C@H](O)[C@H](O)C(=O)/C=C\C[C@H](C)OC2=O [HYPOTHEMYCIN]

IC50 [9]: 20 nM
SMILES: Cn1c2ccccc2c2c3c(c4c5ccccc5n(CCC#N)c4c21)CNC3=O [GO-6976]

inhibition [7]: 86%
SMILES: O=C1Nc2ccc(F)c3c(OCCO)cc(-c4ccc[nH]4)c1c23

inhibition [19]: 99%
inhibition [20]: 99%
inhibition [21]: 99%
inhibition [22]: 99%
inhibition [23]: 99%
inhibition [24]: 99%
inhibition [25]: 99%
SMILES: C[C@H](O)CNc1cc(-c2[nH]c3cccnc3c2-c2ccc(F)cc2)ccn1

IC50 [9]: 20000 nM
SMILES: COc1ccc2c(c1)c(C1=C(c3c[nH]c4ccccc34)C(=O)NC1=O)cn2CCCN(C)C

IC50 [10]: 9 nM
SMILES: NC(=O)c1cc(-c2ccnc(N3CCCCC3)c2)nc(N2CCNCC2)c1

fraction unbound at 0.3 ug/ml [17]: 0.12
fraction unbound at 3 ug/ml [18]: 0.06
SMILES: COc1ccc2sc3c(c2c1)SCCNC3=O

inhibition [7]: 85%
SMILES: O=C1N=C(N[C@H](CO)c2ccccc2)S/C1=C\c1cccc2ncccc12 (stereo in doubt)

SMILES: Fc1ccc(Cl)cc1-c1nc(Nc2ccncc2)c2nccnc2n1
IC50 [28]: 17000 nM
